Data from patent US12692223B2, “Phenyl-sulfamoyl-benzoic acid derivatives as ERAP1-modulators” (GREY WOLF THERAPEUTICS LIMITED, priority 2021, dated 2026).

biological target: T1, ERAP1 (Homo sapiens, UniProt Q9NZ08); assay: ERAP1 mediated hydrolysis of an amide substrate measured in a biochemical system (10-mer inhibition assay); details: purified ERAP1(37-941)-10His; 10-mer substrate; 23° C. for 1 h; excitation 279 nm, emission 355 nm; read-out: IC50 vs Decapeptide WRVYEKC(Dnp)ALK-acid (where Dnp is Dinitrophenyl maleimide) (10-mer)
T1 construct: Purified ERAP1(37-941)-10His (ERAP1)
Protocol: Biological Assay 1: ERAP1 Mediated Hydrolysis of an Amide Substrate Measured in a Biochemical System
• 1× Assay buffer (AB): 25 mM Bis-tris propane, 0.05% w/v • Hydroxypropylmethylcellulose pH 7.75 made with Optima grade water • Decapeptide WRVYEKC(Dnp)ALK-acid (where Dnp is Dinitrophenyl maleimide) (10-mer) • L-Leucine 7-amido-4-methylcoumarin (L-AMC) • Purified ERAP1(37-941)-10His (ERAP1) Assay Procedure:
12.5 μL ERAP1 enzyme in 1×AB was combined with 250 nL test compound in DMSO. 12.5 μL of either 240 μM L-AMC in 1×AB or 100 μM 10-mer in 1×AB was added to the reaction and incubated at 23° C. for 1 h. For detection, plates were read at excitation 365 nm and emission 442 nm (L-AMC) or excitation 279 nm and emission 355 nm (10-mer). Compound IC50 was determined using a 4-parameter equation.

T1 sequence (Q9NZ08 37-941): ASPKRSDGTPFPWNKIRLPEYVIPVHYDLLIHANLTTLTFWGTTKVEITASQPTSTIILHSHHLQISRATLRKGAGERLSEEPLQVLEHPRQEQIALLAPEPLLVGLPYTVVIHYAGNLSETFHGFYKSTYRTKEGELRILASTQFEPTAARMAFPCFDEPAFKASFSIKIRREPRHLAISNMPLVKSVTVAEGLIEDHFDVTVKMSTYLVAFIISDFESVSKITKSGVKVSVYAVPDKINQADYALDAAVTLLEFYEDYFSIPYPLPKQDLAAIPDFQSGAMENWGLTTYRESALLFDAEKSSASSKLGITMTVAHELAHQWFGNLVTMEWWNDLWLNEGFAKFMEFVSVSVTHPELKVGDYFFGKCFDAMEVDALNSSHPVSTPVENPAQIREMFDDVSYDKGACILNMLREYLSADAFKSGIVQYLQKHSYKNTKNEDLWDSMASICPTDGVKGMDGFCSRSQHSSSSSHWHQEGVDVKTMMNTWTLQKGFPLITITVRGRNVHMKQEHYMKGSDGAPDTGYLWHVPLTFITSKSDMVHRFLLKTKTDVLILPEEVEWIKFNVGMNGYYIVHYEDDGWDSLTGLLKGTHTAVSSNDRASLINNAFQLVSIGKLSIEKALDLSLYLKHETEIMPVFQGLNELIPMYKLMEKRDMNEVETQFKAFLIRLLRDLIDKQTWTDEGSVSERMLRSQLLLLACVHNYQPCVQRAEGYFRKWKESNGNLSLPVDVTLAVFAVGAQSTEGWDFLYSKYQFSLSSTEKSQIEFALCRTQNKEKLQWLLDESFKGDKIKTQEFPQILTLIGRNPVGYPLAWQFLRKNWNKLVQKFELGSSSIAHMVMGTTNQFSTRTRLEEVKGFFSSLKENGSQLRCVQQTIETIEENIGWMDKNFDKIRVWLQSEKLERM

IC50 [nM] | SMILES
> 5 | C#CC1CCCC1Oc1cc(Cl)c(C#N)cc1NS(=O)(=O)c1cc(C(=O)O)ccc1C1CC1 (single isomer, unassigned) [Example 127, 3-(N-(4-chloro-5-cyano-2-((cis-2-ethynylcyclopentyl)oxy)phenyl)sulfamoyl)-4-cyclopropylbenzoic acid]
< 1 | CC1(C)CCC[C@H]1Oc1cc(F)c(-n2cnnn2)cc1NS(=O)(=O)c1cc(C(=O)O)ccc1C1CC1 [Example 125, (R)-4-cyclopropyl-3-(N-(2-((2,2-dimethylcyclopentyl)oxy)-4-fluoro-5-(1H-tetrazol-1-yl)phenyl)sulfamoyl)benzoic acid]
> 5 | COC1CCCC1Oc1cc(Cl)c(C#N)cc1NS(=O)(=O)c1cc(C(=O)O)ccc1C1CC1 (single isomer, unassigned) [Example 104, 3-(N-(4-chloro-5-cyano-2-((trans-2-methoxycyclopentyl)-oxy)phenyl)sulfamoyl)-4-cyclopropylbenzoic acid]
< 1 | COC1(COc2cc(Cl)c(C#N)cc2NS(=O)(=O)c2cc(C(=O)O)ccc2C2CC2)CCC1 [Example 87, 3-(N-(4-chloro-5-cyano-2-((1-methoxycyclobutyl)methoxy)phenyl)sulfamoyl)-4-cyclopropylbenzoic acid]
1 to 5 | N#Cc1cc(NS(=O)(=O)c2cc(C(=O)O)ccc2C2CC2)c(OC2CCC23CCC3)cc1Cl (single isomer, unassigned) [Example 91, 3-(N-(4-chloro-5-cyano-2-(spiro[3.3]heptan-1-yloxy)phenyl)sulfamoyl)-4-cyclopropylbenzoic acid]
< 1 | N#Cc1cc(NS(=O)(=O)c2cc(C(=O)O)ccc2C2CC2)c(OC2CCC(F)(F)C2)cc1Cl (single isomer, unassigned) [Example 141, 3-(N-(4-chloro-5-cyano-2-((3,3-difluorocyclopentyl)oxy)phenyl)sulfa-moyl)-4-cyclopropylbenzoic acid]
< 1 | N#Cc1cc(NS(=O)(=O)c2cc(C(=O)O)ccc2C2CC2)c(OC2CCCC2F)cc1Cl (racemic) [Example 86, 3-(N-(4-chloro-5-cyano-2-((trans-2-fluorocyclopentyl)oxy)phenyl)sulfamoyl)-4-cyclopropylbenzoic acid]
< 1 | C#CC1CCCC1Oc1cc(Cl)c(C#N)cc1NS(=O)(=O)c1cc(C(=O)O)ccc1C1CC1 (single isomer, unassigned) [Example 117, 3-(N-(4-chloro-5-cyano-2-((trans-2-ethynylcyclopentyl)oxy)phenyl)sulfamoyl)-4-cyclopropylbenzoic acid]
< 1 | COC1CCC(Oc2cc(Cl)c(C#N)cc2NS(=O)(=O)c2cc(C(=O)O)ccc2C2CC2)C1 (mixture of isomers) [Example 124, 3-(N-(4-chloro-5-cyano-2-((3-methoxycyclopentyl)oxy)phenyl)sulfa-moyl)-4-cyclopropylbenzoic acid]
< 1 | CC1CC(COc2cc(Cl)c(C#N)cc2NS(=O)(=O)c2cc(C(=O)O)ccc2C2CC2)C1 (mixture of isomers) [Example 89, 3-(N-(4-chloro-5-cyano-2-((3-methylcyclobutyl)methoxy)phenyl)sulfamoyl)-4-cyclopropylbenzoic acid]

The next lines start with the compound.

SMILES | IC50 [nM]
Cc1oncc1-c1cc(NS(=O)(=O)c2cc(C(=O)O)ccc2C2CC2)c(OC2CCCC2)cc1Cl [Example 25, 3-(N-(4-chloro-2-(cyclopentyloxy)−5-(5-methylisoxazol-4-yl)phenyl)sulfamoyl)-4-cyclopropylbenzoic acid] | < 1
N#Cc1cc(NS(=O)(=O)c2cc(C(=O)O)ccc2C2CC2)c(OCC23COC(C2)C3)cc1Cl [Example 65, 3-(N-(2-((2-oxabicyclo[2.1.1]hexan-4-yl)methoxy)-4-chloro-5-cyanophenyl)sulfamoyl)-4-cyclopropylbenzoic acid] | 1 to 5
CC1CC(Oc2cc(Cl)c(C#N)cc2NS(=O)(=O)c2cc(C(=O)O)ccc2C2CC2)C1 (single isomer, unassigned) [Example 115, 3-(N-(4-chloro-5-cyano-2-(3-methylcyclobutoxy)phenyl)sulfamoyl)-4-cyclopropylbenzoic acid] | < 1
COC1CCCC1Oc1cc(Cl)c(C#N)cc1NS(=O)(=O)c1cc(C(=O)O)ccc1C1CC1 (racemic) [Example 85, 3-(N-(4-chloro-5-cyano-2-((trans-2-methoxycyclopentyl)oxy)phenyl)sulfamoyl)-4-cyclopropylbenzoic acid] | < 1
N#Cc1cc(NS(=O)(=O)c2cc(C(=O)O)ccc2C2CC2)c(OC2CCC2O)cc1Cl (single isomer, unassigned) [Example 129, 3-(N-(4-chloro-5-cyano-2-(trans-2-hydroxycyclobutoxy)phenyl)sulfamoyl)-4-cyclopropylbenzoic acid] | > 5
N#Cc1cc(NS(=O)(=O)c2cc(C(=O)O)ccc2C2CC2)c(O[C@H]2C[C@@H](C#N)C2)cc1Cl [Example 53, 3-(N-(4-chloro-5-cyano-2-(cis-3-cyanocyclobutoxy)phenyl)sulfamoyl)-4-cyclopropylbenzoic acid] | 1 to 5
C[C@H](Oc1cc(Cl)c(C#N)cc1NS(=O)(=O)c1cc(C(=O)O)ccc1C1CC1)C1CCC1 [Example 70, (S)-3-(N-(4-chloro-5-cyano-2-(1-cyclobutylethoxy)phenyl)sulfamoyl)-4-cyclopropylbenzoic acid] | < 1
N#Cc1cc(NS(=O)(=O)c2c(C3CC3)ccc(C(=O)O)c2F)c(OC2CCCC2)cc1Cl [Example 67, 3-(N-(4-chloro-5-cyano-2-(cyclopentyloxy)phenyl)sulfamoyl)-4-cyclopropyl-2-fluorobenzoic acid] | > 5
N#Cc1cc(NS(=O)(=O)c2cc(C(=O)O)ccc2C2CC2)c(O[C@H]2CCOC2)cc1Cl [Example 49, (S)-3-(N-(4-chloro-5-cyano-2-((tetrahydrofuran-3-yl)oxy)phenyl)sulfamoyl)-4-cyclopropylbenzoic acid] | 1 to 5
N#Cc1cc(NS(=O)(=O)c2cc(C(=O)O)ccc2C2CC2)c(OCC2(F)COC2)cc1Cl [Example 37, 3-(N-(4-chloro-5-cyano-2-((3-fluorooxetan-3-yl)methoxy)phenyl)sulfamoyl)-4-cyclopropylbenzoic acid] | 1 to 5
N#Cc1cc(NS(=O)(=O)c2cc(C(=O)O)ccc2C2CC2)c(OC2CC3(CCC3)C2)cc1Cl [Example 39, 3-(N-(4-chloro-5-cyano-2-(spiro[3.3]heptan-2-yloxy)phenyl)sulfamoyl)-4-cyclopropylbenzoic acid] | 1 to 5
CC1CCC1Oc1cc(Cl)c(C#N)cc1NS(=O)(=O)c1cc(C(=O)O)ccc1C1CC1 (single isomer, unassigned) [Example 121, 3-(N-(4-chloro-5-cyano-2-(2-methylcyclobutoxy)phenyl)sulfamoyl)-4-cyclopropylbenzoic acid] | < 1
CC1(COc2cc(Cl)c(C#N)cc2NS(=O)(=O)c2cc(C(=O)O)ccc2C2CC2)CCC1 [Example 27, 3-(N-(4-chloro-5-cyano-2-((1-methylcyclobutyl)methoxy)phenyl)sulfamoyl)-4-cyclopropylbenzoic acid] | < 1
COC1CCC1Oc1cc(Cl)c(C#N)cc1NS(=O)(=O)c1cc(C(=O)O)ccc1C1CC1 (single isomer, unassigned) [Example 139, 3-(N-(4-chloro-5-cyano-2-(trans-2-methoxycyclobutoxy)phenyl)sulfamoyl)-4-cyclopropylbenzoic acid] | > 5
CC1(COc2cc(Cl)c(C#N)cc2NS(=O)(=O)c2cc(C(=O)O)ccc2C2CC2)COC1 [Example 32, 3-(N-(4-chloro-5-cyano-2-((3-methyloxetan-3-yl)methoxy)phenyl)sulfamoyl)-4-cyclopropylbenzoic acid] | 1 to 5
N#Cc1cc(F)c(OC2CCCC2)c(NS(=O)(=O)c2cc(C(=O)O)ccc2C2CC2)c1 [Example 14, 3-(N-(5-cyano-2-(cyclopentyloxy)−3-fluorophenyl)sulfamoyl)-4-cyclopropylbenzoic acid] | > 5
N#Cc1cc(NS(=O)(=O)c2cc(C(=O)O)ccc2C2CC2)c(OCC2CCCC2)cc1Cl [Example 44, 3-(N-(4-chloro-5-cyano-2-(cyclopentylmethoxy)phenyl)sulfamoyl)-4-cyclopropylbenzoic acid] | < 1
Cc1oncc1-c1cc(NS(=O)(=O)c2cc(C(=O)O)ccc2C2CC2)c(OC2CCC2)cc1Cl [Example 60, 3-(N-(4-chloro-2-cyclobutoxy-5-(5-methylisoxazol-4-yl)phenyl)sulfamoyl)-4-cyclopropylbenzoic acid] | < 1
N#Cc1cc(NS(=O)(=O)c2cc(C(=O)O)ccc2C2CC2)c(O[C@H]2C[C@H](O)C2)cc1Cl [Example 96, 3-(N-(4-chloro-5-cyano-2-(trans-3-hydroxycyclobutoxy)phenyl)sulfamoyl)-4-cyclopropylbenzoic acid] | < 1
N#Cc1cc(NS(=O)(=O)c2cc(C(=O)O)ccc2C2CC2)c(O[C@@H]2CCC[C@@H]2F)cc1Cl [Example 73, 3-(N-(4-chloro-5-cyano-2-(((1R,2S)-2-fluorocyclopentyl)oxy)phenyl)sulfamoyl)-4-cyclopropylbenzoic acid] | < 1
N#Cc1cc(NS(=O)(=O)c2cc(C(=O)O)ccc2C2CC2)c(OCC2COC2)cc1Cl [Example 36, 3-(N-(4-chloro-5-cyano-2-(oxetan-3-ylmethoxy)phenyl)sulfamoyl)-4-cyclopropylbenzoic acid] | 1 to 5
